Experiments:
E. tenella = test: Efficacy against E. tenella in broiler cockerels (Table I); type: in vivo, Eimeria tenella; conditions: for Percent Mortality: due to coccidiosis; for Percent Weight Gain: normal controls = 100; for Average Cecal Lesion Score: scale 0-4
Description: (§1) The anticoccidial effects of the A204I derivatives are illustrated by the effects of various of the compounds in controlling single-species infections of Eimeria tenella, Eimeria necatrix, Eimeria mivati, and Eimeria brunetti and a multiple-species infection of Eimeria maxima and Eimeria tenella in chickens.
(§2) For these studies, groups of five 7-day-old chicks were fed a mash diet containing therein a uniformly dispersed A204I derivative. After having been on this ration for 48 hours, each bird was inoculated with sporulated oocysts of the particular species of Eimeria being tested.
(§3) Some of these groups were also inoculated with Eimeria after 48 hours and served as infected controls. Other of these groups were not inoculated with Eimeria and served as normal controls. The results of treatment were evaluated 7 days after inoculation. The birds were weighed, sacrificed and examined for evidence of coccidial lesions. Coccidial involvement was expressed on an arbitrary scale, increasing from zero (no evidence of coccidiosis) to four (maximum involvement for the Eimeria sp. tested). The percent reduction in lesion score is calculated by subtracting the average lesion score of the treated group from the average lesion score of the infected control group, dividing this difference by the average lesion score of the infected control group, and multiplying the quotient by 100.
(§4) The percent weight gain is calculated using the weight gain of normal controls as 100 percent.

[1] = Acute oral toxicity in mice; conditions: mouse, in vivo
From the text: The acute toxicities in mice of various of the A204I derivatives, also administered orally and expressed as LD50, are as follows: […]

E. brunetti = test: Efficacy against E. brunetti in broiler cockerels (Table IV); type: in vivo, Eimeria brunetti; conditions: for Percent Mortality: due to coccidiosis; for Percent Weight Gain: normal controls = 100; for Average Lesion Score: scale 0-4; for Percent Reduction Lesion Score: vs infected controls
Description: as §1, §2, §3, §4

E. maxima and E. tenella = test: Efficacy against a mixed infection of E. maxima and E. tenella in broiler cockerels (Table V); type: in vivo, Eimeria maxima and Eimeria tenella; conditions: for Percent Mortality: due to coccidiosis; for Percent Weight Gain: normal controls = 100; for Cecal Lesions, Average Lesion Score / Intestinal Lesions, Average Lesion Score: scale 0-4; for Intestinal Lesions, Percent Reduction Lesion Score / Cecal Lesions, Percent Reduction Lesion Score: vs infected controls
Description: as §1, §2, §3, §4

pKa' determination = conditions: 66% aqueous dimethylformamide
[2] = Rat feeding studies (Table VII); type: in vivo, rats; conditions: 14 days, mean
Description: For this test, five rats of each sex were studied for 14 days at each treatment level. The mean changes in body weight and the mean amounts of food ingested were calculated for each group.

E. mivati = test: Efficacy against E. mivati in broiler cockerels (Table III); type: in vivo, Eimeria mivati; conditions: for Percent Mortality: due to coccidiosis; for Percent Weight Gain: normal controls = 100; for Average Intestinal Lesion Score: scale 0-4; for Percent Reduction Lesion Score: vs infected controls
Description: as §1, §2, §3, §4

E. necatrix = test: Efficacy against E. necatrix in broiler cockerels (Table II); type: in vivo, Eimeria necatrix; conditions: for Percent Mortality: due to coccidiosis; for Percent Weight Gain: normal controls = 100; for Average Intestinal Lesion Score: scale 0-4; for Percent Reduction Lesion Score: vs infected controls
Description: as §1, §2, §3, §4

[3] = second experiment, .0025 percent in diet
[4] = second experiment, .0025 percent in diet, vs infected control
[5] = first experiment, .00165 percent in diet
[6] = first experiment, .0066 percent in diet
[7] = second experiment, .005 percent in diet

COCCOC1(C(C)C(=O)O)OC(CC2CC(OC)C(C)C3(O2)OC(C)(C2CCC(C4CCC(C5OC(C)(O)C(C)C(OC)C5C)O4)O2)C(OC)C3C)C(C)(OC)C(OC2CCC(OC)C(C)O2)C1C (stereo not shown) [A204I 2-methoxyethyl ether derivative]
Percent Mortality (E. tenella; [3]): 0% | Percent Weight Gain (E. tenella; [3]): 90% | Average Cecal Lesion Score (E. tenella; [3]): 2.9 | Percent Reduction Lesion Score (E. tenella; [4]): < 40%

COC1CCC(OC2C(C)C(OC(C)C)(C(C)C(=O)O)OC(CC3CC(OC)C(C)C4(O3)OC(C)(C3CCC(C5CCC(C6OC(C)(O)C(C)C(OC)C6C)O5)O3)C(OC)C4C)C2(C)OC)OC1C (stereo not shown) [A204I isopropyl ether, A204I isopropyl ether derivative]
Percent Mortality (E. tenella; [3]): 0% | Percent Weight Gain (E. tenella; [3]): 95% | Average Cecal Lesion Score (E. tenella; [3]): 2.3 | Percent Reduction Lesion Score (E. tenella; [4]): < 40% | LD50 [1]: 20 to 36 mg/kg

CCCOC1(C(C)C(=O)O)OC(CC2CC(OC)C(C)C3(O2)OC(C)(C2CCC(C4CCC(C5OC(C)(O)C(C)C(OC)C5C)O4)O2)C(OC)C3C)C(C)(OC)C(OC2CCC(OC)C(C)O2)C1C (stereo not shown) [A204I n-propyl ether, A204I n-propyl ether derivative]
Percent Mortality (E. brunetti; .0025 percent in diet): 0% | Percent Weight Gain (E. brunetti; .0025 percent in diet): 95% | Average Lesion Score (E. brunetti; .0025 percent in diet): 0.80 | Percent Mortality (E. brunetti; .005 percent in diet): 0% | Percent Weight Gain (E. brunetti; .005 percent in diet): 89% | Average Lesion Score (E. brunetti; .005 percent in diet): 0 | Percent Reduction Lesion Score (E. brunetti; .005 percent in diet): 100% | Percent Mortality (E. brunetti; .01 percent in diet): 0% | Percent Weight Gain (E. brunetti; .01 percent in diet): 89% | Average Lesion Score (E. brunetti; .01 percent in diet): 0 | Percent Reduction Lesion Score (E. brunetti; .01 percent in diet): 100% | Percent Mortality (E. maxima and E. tenella; .0025 percent in diet): 0% | Percent Weight Gain (E. maxima and E. tenella; .0025 percent in diet): 94% | Cecal Lesions, Average Lesion Score (E. maxima and E. tenella; .0025 percent in diet): 2.67 | Intestinal Lesions, Average Lesion Score (E. maxima and E. tenella; .0025 percent in diet): 0.13 | Intestinal Lesions, Percent Reduction Lesion Score (E. maxima and E. tenella; .0025 percent in diet): 84% | Percent Mortality (E. maxima and E. tenella; .005 percent in diet): 0% | Percent Weight Gain (E. maxima and E. tenella; .005 percent in diet): 99% | Cecal Lesions, Average Lesion Score (E. maxima and E. tenella; .005 percent in diet): 0.07 | Intestinal Lesions, Average Lesion Score (E. maxima and E. tenella; .005 percent in diet): 0.07 | Cecal Lesions, Percent Reduction Lesion Score (E. maxima and E. tenella; .005 percent in diet): 98% | Intestinal Lesions, Percent Reduction Lesion Score (E. maxima and E. tenella; .005 percent in diet): 91% | Percent Mortality (E. maxima and E. tenella; .01 percent in diet): 0% | Percent Weight Gain (E. maxima and E. tenella; .01 percent in diet): 98% | Cecal Lesions, Average Lesion Score (E. maxima and E. tenella; .01 percent in diet): 0 | Intestinal Lesions, Average Lesion Score (E. maxima and E. tenella; .01 percent in diet): 0 | Cecal Lesions, Percent Reduction Lesion Score (E. maxima and E. tenella; .01 percent in diet): 100% | Intestinal Lesions, Percent Reduction Lesion Score (E. maxima and E. tenella; .01 percent in diet): 100% | pKa (pKa' determination): 7.8 | Body Weight Change ([2]; female, 5 ppm): +34.0 g | Food ingested ([2]; female, 5 ppm): 224 g | Body Weight Change ([2]; female, 10 ppm): +36.0 g | Food ingested ([2]; female, 10 ppm): 218 g | Body Weight Change ([2]; female, 20 ppm): +31.6 g | Food ingested ([2]; female, 20 ppm): 229 g | Body Weight Change ([2]; male, 5 ppm): +77.8 g | Food ingested ([2]; male, 5 ppm): 281 g | Body Weight Change ([2]; male, 10 ppm): +45.2 g | Food ingested ([2]; male, 10 ppm): 221 g | Body Weight Change ([2]; male, 20 ppm): +66.6 g | Food ingested ([2]; male, 20 ppm): 288 g | Percent Mortality (E. mivati; .0025 percent in diet): 0% | Percent Weight Gain (E. mivati; .0025 percent in diet): 94% | Average Intestinal Lesion Score (E. mivati; .0025 percent in diet): 0.27 | Percent Reduction Lesion Score (E. mivati; .0025 percent in diet): 85% | Percent Mortality (E. mivati; .005 percent in diet): 0% | Percent Weight Gain (E. mivati; .005 percent in diet): 97% | Average Intestinal Lesion Score (E. mivati; .005 percent in diet): 0 | Percent Reduction Lesion Score (E. mivati; .005 percent in diet): 100% | Percent Mortality (E. mivati; .01 percent in diet): 0% | Percent Weight Gain (E. mivati; .01 percent in diet): 98% | Average Intestinal Lesion Score (E. mivati; .01 percent in diet): 0 | Percent Reduction Lesion Score (E. mivati; .01 percent in diet): 100% | Percent Mortality (E. necatrix; .0025 percent in diet): 0% | Percent Weight Gain (E. necatrix; .0025 percent in diet): 63% | Average Intestinal Lesion Score (E. necatrix; .0025 percent in diet): 1.6 | Percent Reduction Lesion Score (E. necatrix; .0025 percent in diet): 59% | Percent Mortality (E. necatrix; .005 percent in diet): 6.7% | Percent Weight Gain (E. necatrix; .005 percent in diet): 92% | Average Intestinal Lesion Score (E. necatrix; .005 percent in diet): 0.2 | Percent Reduction Lesion Score (E. necatrix; .005 percent in diet): 95% | Percent Mortality (E. necatrix; .01 percent in diet): 0% | Percent Weight Gain (E. necatrix; .01 percent in diet): 89% | Average Intestinal Lesion Score (E. necatrix; .01 percent in diet): 0 | Percent Reduction Lesion Score (E. necatrix; .01 percent in diet): 100% | Percent Mortality (E. tenella; [5]): 35% | Percent Weight Gain (E. tenella; [5]): 79% | Average Cecal Lesion Score (E. tenella; [5]): 4.0 | Percent Reduction Lesion Score (E. tenella; first experiment, .00165 percent in diet, vs infected controls): 0% | Percent Mortality (E. tenella; [6]): 20% | Percent Weight Gain (E. tenella; [6]): 79% | Average Cecal Lesion Score (E. tenella; [6]): 3.7 | Percent Reduction Lesion Score (E. tenella; first experiment, .0066 percent in diet, vs infected controls): 0% | Percent Mortality (E. tenella; [3]): 0% | Percent Weight Gain (E. tenella; [3]): 87% | Average Cecal Lesion Score (E. tenella; [3]): 1.8 | Percent Reduction Lesion Score (E. tenella; [4]): 50% | Percent Mortality (E. tenella; [7]): 0% | Percent Weight Gain (E. tenella; [7]): 96% | Average Cecal Lesion Score (E. tenella; [7]): 0 | Percent Reduction Lesion Score (E. tenella; second experiment, .005 percent in diet, vs infected control): 100% | LD50 [1]: 38 ± 6 mg/kg

From patent US3953474A
